Reference: patent US9709886B2, “Sulfonic acid derivative compounds as photoacid generators in resist applications” (Heraeus Precious Metals North America Daychem LLC, priority 2015, dated 2017)

Assays:
Format in all cases: physicochemical
[1] = Solubility of PAG in organic solvents at 20° C.; conditions: for solubility in the tested solvents: PGMEA, GBL; for solubility in the tested solvents / Solubility (w/w%) Cyclohexanone: cyclohexanone; for Solubility (w/w%) PGMEA: Propylene glycol monomethyl ether acetate; for Solubility (w/w%) GBL: γ-Butyrolactone
Source text: Solubility is an important factor in the evaluation of a PAG. High solubility not only makes a PAG purified readily but also enables a PAG to be used for a wide range of concentrations in photoresists and in varied solvent systems. To test the solubility of a PAG, a solvent is slowly added until the PAG is completely dissolved and no turbidity is observed in the clear solution. Table 8 lists the solubility (w/w %) of some representative N-hydroxynaphthalimide sulfonate derivatives versus NIT in various organic solvents at 20° C.

[2] = Photolysis of PAGs in acetonitrile, irradiation at 365 nm (photoreactivity); conditions: for Solubility × Photoreactivity: solubility in PGMEA times relative photoreactivity at 365 nm
Source text: A photoresist composition typically comprises PAG, polymers, additives and solvents. The performance of a photoresist composition is mainly dependent on the properties of the PAG and polymer components. To formulate a high-performance photoresist composition, more photosensitive PAGs are typically selected. The photosensitivity of a PAG is typically directly related to the strength of the generated acid and the photoreactivity of the PAG. For a series of PAGs producing the same latent acid, their photosensitivity is related only to their photoreactivity. Thus evaluating the photosensitivity of a PAG can be achieved by studying its photoreactivity. The higher photoreactivity, the higher photosensitivity. The photoreactivity can be investigated by photolysis of a PAG in its dilute solution under low exposure intensity (to avoid side reactions which don't generate the desired acid). The change in the concentration of a PAG upon irradiation can be determined by measuring the absorbance of the PAG at the maximum absorption wavelength.
(§1) Photolysis of PAGs was carried out in acetonitrile in air at room temperature. The sodium salt of tetrabromophenol blue (TBPBNa), an acid indicator dye, which has a maximum absorption at 618 nm, was purchased from Aldrich (indicator grade) and used as received. Irradiation of the solution of the PAGs (3×10^−5 M) was performed using a Cole-Parmer UV 15 W bench lamp (EW-97605-50) at 365 nm. Light intensity was measured using an UV Power Puck II radiometer from EIT Inc. UV-Vis spectra were run on a Thermo Scientific Evolution 201 UV-visible spectrophotometer.
Photolysis of NIT, comparative compound A and B, T1, T2, T3, and T5 was examined in acetonitrile. […] The absorption band at 362 nm (λmax) gradually decreases upon irradiation, indicating the progress of photoreaction with the increase of exposure dose of energy. Assuming the photoreaction is first-order, a plot of the natural log of changes in absorbance with exposure dose of energy gives the photoreaction constant of T3 (i.e., the slope of the linear trendline) (FIG. 2). The photoreaction constants of other compounds were similarly determined under the same irradiation condition. Comparing the constants of A, B, T1, T2, T3, and T5 with that of NIT normalized to one gives the relative photoreactivity (Table 9). […] The formation of acid upon irradiation was confirmed by observing the spectral changes of the acid indicator, TBPBNa at 618 nm.

UV-Vis spectra in ACN = conditions: FIG. 4, in ACN (0.001% w/v)
Protocol: FIG. 4 is a UV-Vis spectra of compounds NIT, T1, T2 and T5 in ACN (0.001% w/v).
as §1

[3] = Solubility of PAG in organic solvents at 20° C.; conditions: Table 9; Propylene glycol monomethyl ether acetate

Row | Compound | solubility in the tested solvents [1] | Solubility (w/w%) PGMEA [1] [% w/w%] | Solubility (w/w%) Cyclohexanone [1] [% w/w%] | Solubility (w/w%) GBL [1] [% w/w%] | Solubility × Photoreactivity [2] [%] | absorbance at i-line of a mercury lamp versus NIT (UV-Vis spectra in ACN) | absorption maximum (UV-Vis spectra in ACN) [nm] | Solubility (w/w%) in PGMEA [3] [% w/w%] | absorption band (λmax) ([2]; FIG. 1, acetonitrile, before irradiation at 365 nm) [nm]
1 | CCCCCCC#Cc1ccc2c3c(cccc13)C(=O)N(OS(=O)(=O)C(F)(F)C(F)(F)C(F)(F)C(F)(F)F)C2=O [Compound T3] | – | 20.6 | 42.0 | 2.2 | 198 | – | – | 20.6 | 362
2 | CCCCC#Cc1ccc2c3c(cccc13)C(=O)N(OS(=O)(=O)C(F)(F)C(F)(F)C(F)(F)C(F)(F)F)C2=O [Compound T1] | – | 8.3 | 19.7 | 1.5 | 77.2 | much larger than that of NIT | 362 | 8.3 | –
3 | O=C1c2cccc3c(C#Cc4ccccc4)ccc(c23)C(=O)N1OS(=O)(=O)C(F)(F)F [A, reference compound] | – | 1.0 | 3.5 | 0.9 | 2.5 | – | – | 1.0 | –
4 | CCCCC#Cc1ccc2c3c(cccc13)C(=O)N(OS(=O)(=O)C(F)(F)F)C2=O [B, reference compound] | – | 6.1 | 11.5 | 2.3 | 48.8 | – | – | 6.1 | –
5 | O=C1c2cccc3cccc(c23)C(=O)N1OS(=O)(=O)C(F)(F)F [NIT, N-Hydroxynaphthalimide triflate, reference compound] | – | 1.7 | 5.9 | 2.2 | 1.7 | – | – | 1.7 | –

Second part, led by results:

Row | solubility in the tested solvents [1] | Solubility (w/w%) PGMEA [1] [% w/w%] | Solubility (w/w%) Cyclohexanone [1] [% w/w%] | Solubility (w/w%) GBL [1] [% w/w%] | Solubility × Photoreactivity [2] [%] | absorbance at i-line of a mercury lamp versus NIT (UV-Vis spectra in ACN) | absorption maximum (UV-Vis spectra in ACN) [nm] | Solubility (w/w%) in PGMEA [3] [% w/w%] | Compound | absorption band (λmax) ([2]; FIG. 1, acetonitrile, before irradiation at 365 nm) [nm]
6 | extremely high solubility | 50.1 | 55.4 | 32.4 | 200 | much larger than that of NIT | 353 | 50.1 | CCCC(=O)OCC#Cc1ccc2c3c(cccc13)C(=O)N(OS(=O)(=O)C(F)(F)F)C2=O [Compound T5] | –
7 | extremely high solubility | 45.8 | 52.4 | 23.1 | 394 | much larger than that of NIT | 362 | 45.8 | CCCCCCC#Cc1ccc2c3c(cccc13)C(=O)N(OS(=O)(=O)C(F)(F)F)C2=O [Compound T2] | –
